Assay results published in patent US20260373497A1, “MOLECULAR MACHINES STIMULATE INTERCELLULAR CALCIUM WAVES AND CAUSE MUSCLE CONTRACTION” (William Marsh Rice University, priority 2022, published 2026).
Entries after “also recorded” stand apart in the source; their conditions may differ.

How the values were obtained:
HEK293 cells = test: MM-induced intracellular calcium responses (Fluo-4) after 400 nm stimulation; type: cell-based
Experimental: To investigate cellular responses to the actuation of MM, live-cell calcium tracking were employed. HEK293 cells were treated with the fluorescent intracellular calcium indicator Fluo-4 and loaded with MM. The structures of the MM employed in this study are shown in FIG. 1B, and the calcium responses of cells treated with fast-rotating MM 1 are shown in FIG. 1C. […] In the presence of the vehicle only, no calcium responses were evoked by the same laser treatment (FIG. 2).
Cell Culture and Preparation of Cells for Microscopy: HEK293 cells were chosen as the principal model system due to their prevalence in electrophysiological interrogation. […] HEK293 cells, HeLa cells, and N2A cells were cultured in DMEM (10% FBS, 1% penicillin/streptomycin) and passaged at <90% confluence. To grow cardiomyocytes, a dissColved rat heart (TransnetYX©) was triturated, centrifuged, and resuspended in cardiomyocyte growth medium (TransnetYX© catalog #SKU-NBCG) and seeded at a concentration of 60,000 cells cm^−2. Growth substrates were pre-treated with 1% gelatin solution for 3 h, then washed with PBS. Cardiomyocytes were allowed to grow for 4 days, after which the growth medium was exchanged for cardiomyocyte maintenance medium (TransnetYX© catalog #SKU-NBCM). Experiments were conducted from day 4 to day 6.
Imaging was conducted in imaging extracellular buffer (iECB; 119 mM NaCl, 5 mM KCl, 10 mM HEPES, 2 mM CaCl2, 1 mM MgCl2 (pH 7.2); 320 mOsm). Imaging in calcium-free medium was conducted in phosphate-buffered saline. Cells were prepared for imaging by seeding a 35 mm Ibidi imaging dish with ~50,000 cells in 1 mL of DMEM, and grown at 37 °C, 5% CO2 for 2 days. Prior to imaging, cells were incubated with dyes and/or molecules resuspended in complete growth medium at the appropriate concentration (MM 1 (8 μM), MM 2 (8 μM), MM 3 (24 μM), MM 4 (8 μM), Fluo-4 (2 μM)). MM and Fluo-4 were loaded into cells for 45 min. Cells treated with thapsigargin were exposed for 30 min after MM and Fluo-4 loading. Cells treated with organelle-targeting dyes were exposed for 5 min after MM loading. Ruthenium red and Gd^3+ were included in the imaging medium during stimulation and were associated with cells for 10 min prior to imaging. At the end of incubation, this medium was replaced with the iECB. Unless otherwise specified, all experiments were replicated in triplicate.
In Vitro Imaging and Stimulation: Cells were loaded in a Nikon A1-Rsi confocal system mounted on a widefield Ti-E fluorescence microscope. Imaging was conducted using a 60× water immersion objective (NA of 1.27, 0.17 mm working distance). Green fluorophores (Fluo-4, MitoTracker Green) were excited using a 488 nm photodiode laser. Red fluorophores (ER-Tracker-Red, PI) were excited using a 561 nm photodiode laser. Deep red fluorophores (cellMask plasma membrane stain) were excited using a 630 nm photodiode laser. Laser stimulation for in vitro experiments was performed with a 400 nm photodiode laser (Coherent OBIS™ LX SF) operating in a fluorescence-recovery-after-photobleaching (FRAP) experiment mode, delivering up to 6.4×10^2 W cm^−2 at sample level. Unless otherwise specified, all experiments were conducted using a stimulus irradiance of 3.2×10^2 W cm^−2. Cardiomyocyte experiments were conducted using a stimulus irradiance of 5.1×10^2 W cm^−2. Power was calibrated using a Thor Labs S130C laser power meter. Stimulation was targeted to a circular area of diameter 5 μm in a 250 ms pulse, during which the laser rasters across the entire region of interest. […] Fluo-4 fluorescence was collected for 30 s before and 2 min after stimulation. Images were collected using a Galvano scanner operating at 0.94 fps. In selected experiments, images were also collected using a resonant scanner operating at 7.7 fps.
Data Analysis—In Vitro: Data were analyzed using custom-written Python scripts. Fluorescence traces of calcium indicator Fluo-4 from cells were imported and processed via the Pandas library. […]

[1] = Extinction coefficient by UV-Vis; type: physicochemical; conditions: UV-Vis in spectral-grade water, 16 μM
Experimental: FIG. 13—Sample UV-Vis spectra of each MM taken at 16 μM in spectral-grade water.
Table 1. Properties of MM 1-4. Partition coefficients and total polar surface area were calculated using the molInspiration online calculator. milogP represents the logarithm of the partition coefficient between octanol and water, used to represent hydrophobicity (higher values are more hydrophobic). Rotation rates were provided using the thermodynamics of the thermal helix inversion step. MM structures provided for reference.

[2] = 8 μM MM, 400 nm, 3.2×10^2 W cm^−2, 250 ms

Row | SMILES | Intracellular calcium response (Fluo-4) (HEK293 cells; [2]) | Decay kinetics of calcium response (HEK293 cells; 8 μM, 400 nm light, 250 ms) | Time to peak of calcium transient after stimulation (HEK293 cells; 8 μM, 400 nm light, 250 ms) [s] | Repeatability of calcium responses (HEK293 cells; 3.2×10^2 W cm^−2, 250 ms, multiple stimulations) | Light power dependence of calcium response (HEK293 cells; 250 ms pulse, 5 μm diameter) | Propagation of calcium response to adjacent cells (HEK293 cells; MM 1, 400 nm light) | Signal amplitude compared with other MM (HEK293 cells; MM 1 vs MM 2) | Extinction Coeff @ 400 nm [1] | Intracellular calcium response (Fluo-4) (HEK293 cells; MM 3 at 24 μM, 6.4×10^2 W cm^−2)
1 | CC1Cc2ccc3ccccc3c2C1=C1c2ccccc2Sc2cc(NCCN(C)C)ccc21 (stereo not drawn) [MM 1] | increased Fluo-4 fluorescence in the targeted cell; also recorded: elicited rapid increases in intracellular calcium; also recorded: elicited the strongest signaling responses in vitro | decayed over the next minute | 10 to 20 | repeatable | higher response amplitude at higher irradiance | Calcium responses were observed to propagate to adjacent cells | reached a higher amplitude than those elicited by MM 2 | ~11,000 L mol^−1cm^−1 | –
2 | CC1Cc2cc(NCCN(C)C)c3ccccc3c2C1=C1c2ccccc2-c2ccccc21 (stereo not drawn) [MM 3] | – | – | – | – | – | – | – | ~7,500 L mol^−1cm^−1 | elicited no change in calcium activity upon irradiation; also recorded: did not elicit any noticeable responses in vitro
3 | CN(C)CCNc1ccc2c(c1)Sc1ccccc1C2=C1CCc2ccc3ccccc3c21 [MM 4] | elicited only small changes in calcium concentration; also recorded: elicited inconsistent and weak responses | – | – | – | – | – | – | ~13,000 L mol^−1cm^−1 | –
